From patent publication US10099995B2 (Cole Research and Design, LLC, priority 2015, dated 2018)
Values after ≈ are worked out from the molar mass of the structure shown.

Tests used:
[1] = test system: subscapular incision wound; experiment: in vivo application of compositions to subscapular incisions in a rat model (Example 13); parameters: species or system Sprague-Dawley rats
Description: 12 Sprague-Dawley rats were placed randomly into 6 different groups, Study Groups 1-6, resulting in 2 animals per study group. Animals were anesthetized and the dorsal subscapular areas were shaved of hair with electric trimmers. Demarcations were made in a gently widening parallel approximately 1 cm subscapular and 2.2 cm in length. The left subscapular incision served as a control and the right subscapular incision served as the treatment site. The subscapular areas were incised with a #15 blade though the skin and subcutaneous panniculus carnosus muscle. The composition mixture corresponding to each group was then instilled into the right subscapular wound and the incision closed with 5-0 nylon interrupted fashion. Additional mixture was applied to the surface of the treatment site incision. Three biopsies were taken of normal skin at the time of incision and prior to any mixture instillation. Each site was then monitored and photographed daily. Wound gross morphology was noted daily. Sutures were removed and biopsies were taken at day 8 of the study (postoperative day #7) and sent to pathology for histology review. Histology was reviewed independently by two dermatopathologists.
A siRNA (MCP-1 inhibitor)

[2] = pH 7.4
[3] = physchem
Protocol: Two 4 mg samples of each compound were weighed.
The first sample was used to determine solubility. The sample was mixed with 1 mL of pH 7.4 phosphate buffered saline (PBS) buffer solution to produce a 4 mg/mL solution. The solution was vortexed and filtered to remove undissolved particles. The filtered solution was then diluted in pH 7.4 buffer in triplicate and stored in a refrigerator to reduce hydrolysis. The solutions were allowed to sit at room temperature for 5 minutes and then were analyzed by HPLC.
The second sample was used to prepare a calibration curve in ethanol. Calibrators were made based on expected solubility. After visually inspecting solubility in the buffer, the calibration curve was determined in order to include points above and below the expected concentration. The calibrators were stored in a refrigerator until ready for analysis by HPLC.

[4] = test system: wound; conditions: applied before wound formation or up to 24 hours after; cited from earlier work

| evidence of trichogranuloma in histology specimens ([1]; histology) | hydrolysis [2] | Solubility ([3]; pH 7.4) | Solubility ([3]; pH 7.4, aqueous buffer, thermodynamic from solid) | Structure (SMILES) | differences in histology between control and treatment site ([1]; 100 μM and 400 μM (either dosage), Groups 2 and 3) | difference in treatment, alone, as compared to natural resveratrol alone ([1]; Groups 2 and 3) | scar [4] | time to re-epithelialization [4] |
| --- | --- | --- | --- | --- | --- | --- | --- | --- |
| mild | slightly hydrolyzed | 2060 µg/mL (≈ 3610 µM) | – | O=C(O)CCCC(=O)Oc1ccc(C=Cc2cc(OC(=O)CCCC(=O)O)cc(OC(=O)CCCC(=O)O)c2)cc1 [Resveratrol trihemiglutarate, resveratrol trihemiglutarate] | no differences | no appreciable difference | – | – |
| – | quick hydrolysis | 291 µg/mL (≈ 551 µM) | – | O=C(O)CCC(=O)Oc1ccc(C=Cc2cc(OC(=O)CCC(=O)O)cc(OC(=O)CCC(=O)O)c2)cc1 [Resveratrol trihemisuccinate, resveratrol trihemisuccinate] | – | – | – | – |
| – | – | – | 4.8 µg/mL (≈ 21 µM) | Oc1ccc(/C=C/c2cc(O)cc(O)c2)cc1 [Resveratrol, trans-3,4′,5-trihydroxystilbene] | – | – | attenuated scar | up to 24 hours |
